Assay results: patent US20220288001A1, “CREATINE FOR IMMUNOTHERAPY” (The Regents of the University of California, priority 2019, published 2022)

Key:
Zap-70 = assay: Western blot of TCR proximal signaling in CD8 T cells with creatine supplementation; assay type: cell-based, mouse; conditions: CrT-WT CD8 T cells; creatine 0.5 mM; anti-CD3 stimulation
Experimental: CD8 T cells were cultured in vitro in standard T cell culture medium comprising RPMI 1640 (Cat #10040, Corning), 10% FBS (Cat #F2442, Sigma), 1% Penicillin-Streptomycin-Glutamine (Cat #10378016, Gibco), 1% MEM Non-Essential Amino Acids Solution (Cat #11140050, Gibco), 1% HEPES (Cat #15630080, Gibco), 1% Sodium Pyruvate (100 mM) (Cat #11360070, Gibco), and 0.05 mM β -Mercaptoethanol (Cat #M3148, Sigma). Unless otherwise indicated, cells were seeded at 0.5×10^6 cells per well in 24-well plates and stimulated with plate-bound anti-CD3 (5 μg/ml) (clone 145-2C11), for up to 5 days. At indicated time point(s), cells were collected and analyzed for CrT mRNA expression using qPCR, for cell proliferation through cell counting, for viability through Annexin V/7-AAD staining followed by flow cytometry analysis, for surface activation marker (CD25) expression through surface staining followed by flow cytometry analysis, for effector molecule (Granzyme B, IL-2, and IFN-γ) production through intracellular staining followed by flow cytometry analysis, and for cytokine (IL-2 and IFN-γ) secretion through collecting cell culture supernatants followed by ELISA analysis. CrT protein expression and TCR signaling events were analyzed using western blot analysis. […]

[1] = humans (Kreider et al., 2017); cited from earlier work
B16-OVA tumors = B16-OVA tumors in C57BL/6J WT mice depleted of T cells by anti-CD3 antibody, creatine supplementation; assay type: in vivo, mouse; conditions: B16-OVA in C57BL/6J WT mice depleted of T cells via i.p. anti-CD3 depletion antibody
Experimental: To establish solid tumors, mice were s.c. injected above the right flank with 1×10^6 B16-OVA or 3×10^5 MC38 cells. Before injection, cells in log phase of growth were harvested and suspended in phosphate-buffered saline (PBS), and 50 μl of cell suspension were injected subcutaneously above the flank. Tumor size was periodically measured with a digital Vernier caliper (Thermo Fisher Scientific). For creatine supplementation via i.p. injection, […] monohydrate (cat #C3630, Sigma-Aldrich) was dissolved in sterile PBS and i.p. injected to experimental animals daily at a dose of 10.5 mg per animal per injection. To study the effects of creatine supplementation on suppressing tumor growth, B6 mice were inoculated with B16-OVA tumor cells and monitored for tumor growth, with or without receiving creatine supplementation via i.p. injection or diet. […] To study the T cell-dependence of creatine supplementation induced anti-tumor effects, B6-OVA tumor growth was monitored and compared in B6 mice receiving i.p. injection of an anti-CD3 T cell depleting antibody ([…]; 100 μg/mouse/injection, twice per week) or an isotype control antibody (clone LTF-2, 100 μg/mouse/injection, twice per week), with or without i.p. supplement of creatine.

skeletal muscle fibers = assay: Histological analysis of skeletal muscle (H&E, muscle-fiber diameter); assay type: in vivo, mouse; conditions: mice receiving creatine supplements (i.p. or food); biceps femoris
Experimental: Skeletal muscle (biceps femoris) harvested from control (Ctrl) and experimental (Creatine ip and Creatine food) mice were fixed in 10% neutral-buffered formalin and embedded in paraffin for sectioning (5-μm thickness), followed by H&E staining using standard procedures (UCLA Translational Pathology Core Laboratory). The sections were imaged using an Olympus BX51 upright microscope equipped with a Macrofire® CCD camera (Optronics®). The muscle-fiber diameter was assessed with the use of an ImageJ software (NIH).

For CN(CC(=O)O)C(=N)N [creatine], which Zap-70 phosphorylation (Zap-70) is on record?
The Zap-70 phosphorylation was “significantly increased”.

And the “safety of long-term supplementation” value [1]?
Its value is “well-documented safety”.

And the tumor growth (B16-OVA tumors)?
Its tumor growth is “could not be suppressed”.

What about the “skeletal muscle fiber size” value (skeletal muscle fibers) of the same compound?
Its value is “enlargement of skeletal muscle fibers”.
